According to patent publication US20110280848A1, “COMPOSITION COMPRISING CHICORIC ACID AND/OR DERIVATIVES THEREOF” (NESTEC S.A., priority 2009, published 2011):

Tested on: Nrf2-ARE pathway (AREc32 cells)
Assay: Antioxidant Responsive Element (ARE) luciferase assay
Format: cell-based, human
Settings: for F/C (Nrf2-luciferase reporter activity): 24 h
Description: The pGL-8×ARE which contains eight copies of the ARE present in rat glutathione-S-transferase A2 (GSTA2) along with the pcDNA3.1 plasmid containing the neomycin selectable marker was stably transfected into human MCF7 cells (Wang et al., Cancer Res. 66, 10983-10994, 2006). ARE (antioxidant-responsive element) is the binding site of the transcription factor Nrf2 which regulates the genes involved in detoxification and endogenous defense against oxidative stress. The plasmid pGL-8×ARE contains a luciferase gene downstream of the eight Nrf2 binding sites that allows monitoring Nrf2 activity. For treatment with chicoric acid and related compounds, the AREc 32 cells were seeded 96-well microtiter plates in DMEM growth medium. After treatment of 24 h with the different preparations, firefly luciferase activity was determined.

## O=C(/C=C/c1ccc(O)c(O)c1)O[C@@H](C(=O)O)[C@@H](OC(=O)/C=C/c1ccc(O)c(O)c1)C(=O)O [chicoric acid]
100 μg/ml
  F/C (Nrf2-luciferase reporter activity): 2580
200 μg/ml
  F/C (Nrf2-luciferase reporter activity): 4364
400 μg/ml
  F/C (Nrf2-luciferase reporter activity): 8810
600 μg/ml
  F/C (Nrf2-luciferase reporter activity): 558
800 μg/ml
  F/C (Nrf2-luciferase reporter activity): 251
1000 μg/ml
  F/C (Nrf2-luciferase reporter activity): 346
Saturation inactivation response at higher doses
  Response in Nrf2-luciferase reporter activity: positive dose-dependent response
